Substitutions are numbered along the chain they refer to. Entries after “also recorded” stand apart in the source; their conditions may differ. Where a SMILES comes first, the peptide text is derived from it. The star is where a group is joined. X1 = CN(C)c1ccc2c(-c3ccc(C(=O)*)cc3C(=O)[O-])c3ccc(=[N+](C)C)cc-3oc2c1
Experiments:
NHERF1 PDZ1 (1–140) = target: T1, NHERF1 PDZ1 (1–140) (Homo sapiens, UniProt O14745); assay: FP saturation binding, PDZ1 (1–140); settings: acidic pH (5.5, 6.0) compared to pH 7.4
T1 construct: The expression plasmids pET16-N1P1 encoding PDZ1 (1–140); inferred from pET16 vector and Ni-NTA purification; made in house; host or cells: E. coli BL21 (DE3)
T1 sequence (O14745 1-140): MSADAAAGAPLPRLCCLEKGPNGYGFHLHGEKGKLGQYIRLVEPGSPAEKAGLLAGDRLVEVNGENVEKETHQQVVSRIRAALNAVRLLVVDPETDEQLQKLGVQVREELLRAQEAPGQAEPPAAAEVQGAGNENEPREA

NHERF1 PDZ2 N167H/D183E = target: T2, NHERF1 PDZ2 N167H/D183E (Homo sapiens, UniProt O14745, D183E/N167H); assay: FP saturation binding, PDZ2 N167H/D183E; settings: Asn167His/Asp183Glu PDZ2
T2 construct: pET16-N1P2 encoding PDZ2 (133–300) of NHERF1; inferred from pET16 vector and Ni-NTA purification; made in house; host or cells: E. coli BL21 (DE3)
T2 sequence (O14745 133-300 N167H/D183E): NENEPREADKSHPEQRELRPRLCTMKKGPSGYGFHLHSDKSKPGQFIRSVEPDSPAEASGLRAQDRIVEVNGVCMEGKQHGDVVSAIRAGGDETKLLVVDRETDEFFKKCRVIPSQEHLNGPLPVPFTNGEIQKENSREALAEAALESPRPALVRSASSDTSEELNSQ

NHERF1 PDZ2 D183E = target: T3, NHERF1 PDZ2 D183E (Homo sapiens, UniProt O14745, D183E); assay: FP saturation binding, PDZ2 D183E; settings: Asp183Glu PDZ2
T3 construct: pET16-N1P2 encoding PDZ2 (133–300) of NHERF1; inferred from pET16 vector and Ni-NTA purification; made in house; host or cells: E. coli BL21 (DE3)
T3 sequence (O14745 133-300 D183E): T2 sequence (O14745 133-300 N167H/D183E) with H35N

NHERF1 PDZ1 and PDZ2 = settings: PDZ1 versus PDZ2; ref [10],[14]–[16]; cited from earlier work
Source text: Na^+/H^+ Exchanger Regulatory Factor-1 (NHERF1), also known as the 50-kDa ezrin-binding protein EBP50, is a multi-domain scaffolding protein that coordinates the assembly and trafficking of transmembrane receptors and ion channels. […] PDZ domains of NHERF1 recognize the X-S/T-X-ΦCOO ^- sequence of target partners (class I PDZ-binding motifs), where X is promiscuous and Φ is a hydrophobic residue. By conve ...

NHERF1 PDZ1 (1–120) = target: T4, NHERF1 PDZ1 (1–120) (Homo sapiens, UniProt O14745); assay: ITC, PDZ1 (1–120); format: binding; settings: 25°C
T4 construct: PDZ1 (1–120)
T4 sequence (O14745 1-120): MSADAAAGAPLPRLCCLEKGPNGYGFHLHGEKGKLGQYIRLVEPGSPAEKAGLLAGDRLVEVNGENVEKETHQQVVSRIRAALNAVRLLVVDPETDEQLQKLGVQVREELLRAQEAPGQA
Experimental: (§1) ITC measurements were performed with a MicroCalTM Auto-iTC200 system (GE Healthcare) at 25°C. Before measurement, samples were dialyzed overnight at 4°C in a buffer containing 10 mM Hepes (pH 7.5), 10 mM NaCl, 0.5 mM EDTA, and 0.5 mM ββ-mercaptoethanol. For determining NPT2A binding to PDZ constructs, the reaction cells were filled with 460 μl of 25 μM of the indicated PDZ protein. The ligand NPT2A (200–250 μM), was titrated into the cell in 19 injections of 2 μl each, with 150 s intervals between each injection. To remove the contribution of NPT2A dilution heat, a control experiment has been performed by titrating NPT2A into the buffer, which was then subtracted from the actual experimental data.
(§2) The ITC data were analyzed using Microcal Origin 7.0 and the manufacturer's provided VPViewer module to yield the association constant (Ka), stoichiometry (n), and the observed enthalpy change (ΔH°) for the binding reactions. Analysis of ITC data directly yielded ΔH° and Ka. The Gibbs energy calculated using the equation: ΔG°=−RTlnKa (3)
(§3) The entropy change was then obtained using the standard thermodynamic expression.

NHERF1 PDZ1 H27N (1–120) = target: T5, NHERF1 PDZ1 H27N (1–120) (Homo sapiens, UniProt O14745, H27N); assay: ITC, PDZ1 H27N (1–120); format: binding
T5 construct: PDZ1 H27N (1–120)
T5 sequence (O14745 1-120 H27N): T4 sequence (O14745 1-120) with H27N
Experimental: as §1, §2, §3

NHERF1 PDZ1 E43D (1–120) = target: T6, NHERF1 PDZ1 E43D (1–120) (Homo sapiens, UniProt O14745, E43D); assay: ITC, PDZ1 E43D (1–120); format: binding
T6 construct: PDZ1 E43D (1–120)
T6 sequence (O14745 1-120 E43D): T4 sequence (O14745 1-120) with E43D
Experimental: as §1, §2, §3

[1] = target: T7, NHERF1 PDZ1 H27N/E43D (1–120) (Homo sapiens, UniProt O14745, E43D/H27N); assay: ITC, PDZ1 H27N/E43D (1–120); format: binding
T7 construct: PDZ1 H27N/E43D (1–120)
T7 sequence (O14745 1-120 H27N/E43D): T4 sequence (O14745 1-120) with H27N, E43D
Experimental: as §1, §2, §3

CC(C)C[C@H](NC(=O)[C@H](CCCNC(=N)N)NC(=O)[C@@H](NC(=O)[C@H](C)NC(=O)[C@H](CC(N)=O)NC(=O)[C@H](Cc1c[nH]cn1)NC(=O)[C@H](Cc1c[nH]cn1)NC(=O)[C@H](C)NC(=O)[C@@H]1CCCN1C(=O)[C@H](CC(C)C)NC(=O)[C@H](C)NC(=O)[C@H](CC(C)C)NC(=O)[C@H](CCCNC(=N)N)NC(=O)[C@@H]1CCCN1C(=O)[C@H](CO)NC(=O)[C@@H]1CCCN1C(=O)[C@@H](NC(=O)[C@H](C)NC(=O)[C@@H]1CCCN1C(=O)[C@@H]1CCCN1C(=O)[C@H](CC(C)C)NC(=O)[C@H](CCC(=O)O)NC(=O)c1ccc(-c2c3ccc(=[N+](C)C)cc-3oc3cc(N(C)C)ccc23)c(C(=O)[O-])c1)[C@@H](C)O)[C@@H](C)O)C(=O)O [NPT2A] (X1-ELPPATPSPRLALPAHHNATRL-OH)
binding affinity at acidic pH (NHERF1 PDZ1 (1–140)): significantly reduced compared to pH 7.4
binding affinity (NHERF1 PDZ2 N167H/D183E): further enhancement of the binding affinity; also recorded: micromolar affinity
binding affinity (NHERF1 PDZ2 D183E): micromolar affinity
binding selectivity (NHERF1 PDZ1 and PDZ2): binds only PDZ1
N (stoichiometry) (NHERF1 PDZ1 (1–120); pH 7.5): 0.92
ΔH^o (NHERF1 PDZ1 (1–120); pH 7.5): -8.2 ± 0.8 kcal/mol
ΔG^o (NHERF1 PDZ1 (1–120); pH 7.5, from Eq 3): -7.6 ± 0.8 kcal/mol
ΔS^o (NHERF1 PDZ1 (1–120); pH 7.5, from Eq 4): -2.1±0.2 cal/mol/K
effect of His27Asn mutation on interaction (NHERF1 PDZ1 H27N (1–120); FP and ITC): decrease the interaction with NPT2A
N (stoichiometry) (NHERF1 PDZ1 H27N (1–120); ITC, 25°C, pH 7.5): 0.61
ΔH^o (NHERF1 PDZ1 H27N (1–120); ITC, 25°C, pH 7.5): -7.5 ± 0.7 kcal/mol
ΔG^o (NHERF1 PDZ1 H27N (1–120); ITC, 25°C, pH 7.5, from Eq 3): -7.2 ± 0.7 kcal/mol
ΔS^o (NHERF1 PDZ1 H27N (1–120); ITC, 25°C, pH 7.5, from Eq 4): -0.86±0.08 cal/mol/K
∆∆G^o (NHERF1 PDZ1 H27N (1–120); ∆G^o H27N - ∆G^o WT, ITC): about 0.4 kcal/mol
∆∆H^o (NHERF1 PDZ1 H27N (1–120); ∆H^o H27N - ∆H^o WT, ITC): 0.7 kcal/mol
∆∆S^o (NHERF1 PDZ1 H27N (1–120); ∆S^o H27N - ∆S^o WT, ITC): 1.3 cal mol^-1 K^-1
effect of Glu43Asp mutation on interaction (NHERF1 PDZ1 E43D (1–120); FP and ITC): decrease the interaction with NPT2A
∆∆H^o (NHERF1 PDZ1 E43D (1–120); Glu43Asp PDZ1 minus WT, ITC): 5.2 kcal/mol
∆∆S^o (NHERF1 PDZ1 E43D (1–120); Glu43Asp PDZ1 minus WT, ITC): 14.8 cal mol^-1 K^-1
N (stoichiometry) (NHERF1 PDZ1 E43D (1–120); ITC, 25°C, pH 7.5): 0.60
ΔH^o (NHERF1 PDZ1 E43D (1–120); ITC, 25°C, pH 7.5): -3.0 ± 0.3 kcal/mol
ΔG^o (NHERF1 PDZ1 E43D (1–120); ITC, 25°C, pH 7.5, from Eq 3): -6.8 ± 0.7 kcal/mol
ΔS^o (NHERF1 PDZ1 E43D (1–120); ITC, 25°C, pH 7.5, from Eq 4): 12.7±1.0 cal/mol/K
∆∆G^o (NHERF1 PDZ1 E43D (1–120); ∆G^o E43D - ∆G^o WT, ITC): 0.8 kcal/mol
N (stoichiometry) ([1]; 25°C, pH 7.5): 0.60
ΔH^o ([1]; 25°C, pH 7.5): -5.8 ± 0.6 kcal/mol
ΔG^o ([1]; 25°C, pH 7.5, from Eq 3): -6.5 ± 0.6 kcal/mol
ΔS^o ([1]; 25°C, pH 7.5, from Eq 4): 2.3±0.3 cal/mol/K
∆∆G^o ([1]; His27 by Asn and Glu43 by Asp, versus WT): 1.1 kcal/mol

— article PMC4466390, “Canonical and Noncanonical Sites Determine NPT2A Binding Selectivity to NHERF1 PDZ1” (PLoS ONE, 2015)
